Laboratory results reported in ChEMBL document CHEMBL1129184, “Synthesis of water-soluble prodrugs of the cytotoxic agent Combretastatin A4” (Bioorg Med Chem Lett, 1996).

Key:
[1] = Solubility was determined; format: physicochemical
[2] = Percent of the mice tested that exhibited toxicity after a dose of 150 mg/kg; format: organism-based; design: dose 150 mg/kg; settings: mouse, in vivo

SMILES | solubility [1] [µg/mL] | Activity [2] [%]
COc1ccc(/C=C\c2cc(OC)c(OC)c(OC)c2)cc1O.N | ~2800 | 
COc1ccc(/C=C\c2cc(OC)c(OC)c(OC)c2)cc1[O-].[K+] |  | 60
